This is an account of results in ChEMBL document CHEMBL5465560, “Selectivity Literature for EUbOPEN Chemogenomic Library” (2024).

A word on the pIC50: it is −log10 of the IC50, conventionally taken in molar units. A lower pIC50 goes with a large IC50.

The target of assay [1] is Serine/threonine-protein kinase Nek6 (Homo sapiens) (UniProt Q9HC98). As to the kind of experiment: Selectivity interaction (Ambit KINOMEscan and KiNATiv profiling in Jurkat cells) EUB0000090b NEK6. Particulars: at 1 µM. Type of assay: cell-based.
Assay [2] concerns the target Serine/threonine-protein kinase PAK 1 (Homo sapiens) (UniProt Q13153). Particulars: at 10 µM.
For assay [3], the target named is Serine/threonine-protein kinase PAK 6 (Homo sapiens) (UniProt Q9NQU5). As to the kind of experiment: Selectivity interaction (KinomeScan (DiscoverX)) EUB0001079a PAK6. As to conditions: at 1 µM.
Assay [4] deals with Bone morphogenetic protein receptor type-1A (Homo sapiens, UniProt P36894). As to the kind of experiment: Selectivity interaction (KinomeScan (DiscoverX)) EUB0000092b BMPR1A. As to conditions: at 10 µM.
Assay [5] deals with T1, Histone-arginine methyltransferase CARM1 (Homo sapiens, UniProt Q86X55).
T1 sequence (Q86X55 whole entry): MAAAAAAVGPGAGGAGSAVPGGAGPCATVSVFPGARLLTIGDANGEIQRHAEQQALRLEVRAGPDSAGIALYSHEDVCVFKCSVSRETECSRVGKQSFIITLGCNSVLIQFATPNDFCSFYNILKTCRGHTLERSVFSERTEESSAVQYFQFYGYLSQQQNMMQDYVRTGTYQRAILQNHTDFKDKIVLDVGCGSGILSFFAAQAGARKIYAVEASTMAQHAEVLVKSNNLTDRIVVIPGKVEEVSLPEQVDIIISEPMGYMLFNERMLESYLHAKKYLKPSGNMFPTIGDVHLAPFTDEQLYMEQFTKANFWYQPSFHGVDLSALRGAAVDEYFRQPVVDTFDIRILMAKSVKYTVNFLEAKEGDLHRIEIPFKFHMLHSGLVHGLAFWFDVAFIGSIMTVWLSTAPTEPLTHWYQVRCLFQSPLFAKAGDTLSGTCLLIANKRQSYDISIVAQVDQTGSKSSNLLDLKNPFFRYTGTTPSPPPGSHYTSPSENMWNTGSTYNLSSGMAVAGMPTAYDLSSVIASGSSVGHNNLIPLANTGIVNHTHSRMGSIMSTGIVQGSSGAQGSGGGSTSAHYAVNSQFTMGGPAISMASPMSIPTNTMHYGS
Nature of the assay: Selectivity interaction (Western Blot (dimethylation of BAF155 (BAF155me2a/BAF155) in U266B1 cells)) EUB0000255b CARM1. Type of assay: cell-based, U-266. For orientation: A western blot detects proteins with antibodies after separation by electrophoresis.

Assay [6] can be described thus: Selectivity interaction (KinomeScan (DiscoverX)) EUB0001049a CDPK1. As to conditions: at 1 µM.
Assay [7] deals with Glycogen synthase kinase-3 alpha (Homo sapiens, UniProt P49840). As to the kind of experiment: Selectivity interaction (KinomeScan (DiscoverX)) EUB0000045b GSK3A.
In assay [8] the target is T2, Serine/threonine-protein kinase TAO3 (Homo sapiens) (UniProt Q9H2K8).
T2 sequence (whole entry): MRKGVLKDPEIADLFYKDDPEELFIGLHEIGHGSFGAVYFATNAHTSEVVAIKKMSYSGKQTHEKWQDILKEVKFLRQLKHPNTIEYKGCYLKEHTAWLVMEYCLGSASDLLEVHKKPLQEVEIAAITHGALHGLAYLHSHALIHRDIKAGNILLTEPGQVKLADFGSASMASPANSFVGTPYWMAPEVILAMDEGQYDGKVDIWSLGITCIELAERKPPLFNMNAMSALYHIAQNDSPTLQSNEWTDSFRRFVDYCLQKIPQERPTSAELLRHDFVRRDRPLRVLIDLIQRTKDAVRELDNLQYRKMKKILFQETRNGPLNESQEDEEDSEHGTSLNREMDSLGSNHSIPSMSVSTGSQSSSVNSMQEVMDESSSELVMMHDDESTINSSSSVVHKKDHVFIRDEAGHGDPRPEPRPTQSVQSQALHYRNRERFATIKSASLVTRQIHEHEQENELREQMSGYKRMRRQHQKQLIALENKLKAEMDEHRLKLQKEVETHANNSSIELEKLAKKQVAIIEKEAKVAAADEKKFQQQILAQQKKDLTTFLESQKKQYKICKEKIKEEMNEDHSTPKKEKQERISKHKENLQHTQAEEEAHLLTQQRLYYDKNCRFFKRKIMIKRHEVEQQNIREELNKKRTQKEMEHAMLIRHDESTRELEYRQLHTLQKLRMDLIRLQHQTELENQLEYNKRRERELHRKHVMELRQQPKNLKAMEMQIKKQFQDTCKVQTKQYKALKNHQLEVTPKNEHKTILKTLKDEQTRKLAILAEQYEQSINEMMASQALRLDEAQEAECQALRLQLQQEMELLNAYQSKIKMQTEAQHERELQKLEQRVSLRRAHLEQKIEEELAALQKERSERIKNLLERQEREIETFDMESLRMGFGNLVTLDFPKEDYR
As to the kind of experiment: Selectivity interaction (KinomeScan (DiscoverX)) EUB0000666a TAOK3. Particulars: at 10 µM.

Assay [9] has as its target Mitogen-activated protein kinase 1 (Homo sapiens, UniProt P28482). Nature of the assay: Selectivity interaction (Rxn Biology Kinase assay) EUB0001632a MAPK1. As to conditions: at 10 µM.
The target in assay [10] is CDK9/cyclin T1 (Homo sapiens) (UniProt O60563+P50750). As to the kind of experiment: Selectivity interaction (Adapta Assay) EUB0001632a CDK9. Type of assay: protein-complex assay. Particulars: at 10 µM.
Assay [11] concerns the target Histone-lysine N-methyltransferase PRDM9 (Homo sapiens) (UniProt Q9NQV7). Nature of the assay: Selectivity interaction (Methyltransferase screen (radiometric assays, panel of 8 PRMTs, 21 protein lysine methyltransferases, 3 DNA methyltransferases, and one RNA methyltransferase)) EUB0000272b PRDM9.
For assay [12], the target named is T2, Serine/threonine-protein kinase TAO3 (Homo sapiens). Nature of the assay: Selectivity interaction (Kinase panel (Invitrogen)) EUB0000639a TAOK3. Particulars: at 200 nM.
Assay [13] addresses Rho-associated protein kinase 2 (Homo sapiens, UniProt O75116). Nature of the assay: Selectivity interaction (KinomeScan (DiscoverX)) EUB0001619a ROCK2. Particulars: at 1 µM.
For assay [14], the target named is Cyclin-dependent kinase 3 (Homo sapiens) (UniProt Q00526). As to the kind of experiment: Selectivity interaction (KinomeScan (DiscoverX)) EUB0001619a CDK3. As to conditions: at 1 µM.
Assay [15] addresses T3, Phosphatidylinositol 5-phosphate 4-kinase type-2 gamma (Homo sapiens) (UniProt Q8TBX8).
T3 sequence (whole entry): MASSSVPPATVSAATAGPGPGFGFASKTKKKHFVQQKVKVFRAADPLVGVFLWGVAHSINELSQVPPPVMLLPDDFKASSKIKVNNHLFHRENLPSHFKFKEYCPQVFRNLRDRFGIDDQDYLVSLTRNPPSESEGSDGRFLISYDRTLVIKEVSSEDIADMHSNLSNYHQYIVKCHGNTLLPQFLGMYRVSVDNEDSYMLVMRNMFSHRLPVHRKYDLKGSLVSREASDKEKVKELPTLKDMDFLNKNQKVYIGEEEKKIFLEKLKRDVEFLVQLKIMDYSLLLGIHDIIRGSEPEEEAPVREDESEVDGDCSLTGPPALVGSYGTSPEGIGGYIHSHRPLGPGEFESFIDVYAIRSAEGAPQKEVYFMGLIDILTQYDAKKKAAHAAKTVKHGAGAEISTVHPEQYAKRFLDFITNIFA
Nature of the assay: Selectivity interaction (ActivX KiNativ screen (ex vivo kinase selectivity in human PBMCs)) EUB0001619a PIP4K2C. Type of assay: cell-based. As to conditions: PBMC, at 1 µM.

pIC50: −log10 of the molar value. Bounds are passed on as bounds.

Chain of Histone-lysine N-methyltransferase PRDM9 (Homo sapiens) (Q9NQV7 whole entry): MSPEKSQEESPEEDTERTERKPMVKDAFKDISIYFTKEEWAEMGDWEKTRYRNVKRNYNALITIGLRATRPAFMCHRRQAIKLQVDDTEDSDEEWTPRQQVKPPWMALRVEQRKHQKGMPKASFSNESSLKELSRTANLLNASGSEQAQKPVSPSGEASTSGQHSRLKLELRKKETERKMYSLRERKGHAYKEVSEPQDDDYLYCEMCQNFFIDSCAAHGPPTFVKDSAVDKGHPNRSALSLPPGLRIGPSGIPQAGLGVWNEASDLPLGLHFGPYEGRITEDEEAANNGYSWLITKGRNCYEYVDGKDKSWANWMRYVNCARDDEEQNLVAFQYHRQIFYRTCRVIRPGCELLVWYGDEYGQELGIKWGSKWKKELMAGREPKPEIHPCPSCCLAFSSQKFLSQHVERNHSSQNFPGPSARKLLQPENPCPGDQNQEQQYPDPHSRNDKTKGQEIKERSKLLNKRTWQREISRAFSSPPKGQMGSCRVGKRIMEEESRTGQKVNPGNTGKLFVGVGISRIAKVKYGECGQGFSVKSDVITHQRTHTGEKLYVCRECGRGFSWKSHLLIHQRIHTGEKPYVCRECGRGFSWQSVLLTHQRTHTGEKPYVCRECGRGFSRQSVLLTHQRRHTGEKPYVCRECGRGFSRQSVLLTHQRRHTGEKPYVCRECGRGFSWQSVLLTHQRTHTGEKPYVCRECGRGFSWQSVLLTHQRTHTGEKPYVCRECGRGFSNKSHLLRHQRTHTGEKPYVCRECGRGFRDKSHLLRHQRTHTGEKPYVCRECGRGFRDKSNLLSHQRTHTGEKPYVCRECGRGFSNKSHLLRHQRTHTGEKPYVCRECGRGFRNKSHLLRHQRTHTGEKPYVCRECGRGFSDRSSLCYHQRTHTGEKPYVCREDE
Chain of Glycogen synthase kinase-3 alpha (P49840 2-483 limits assumed): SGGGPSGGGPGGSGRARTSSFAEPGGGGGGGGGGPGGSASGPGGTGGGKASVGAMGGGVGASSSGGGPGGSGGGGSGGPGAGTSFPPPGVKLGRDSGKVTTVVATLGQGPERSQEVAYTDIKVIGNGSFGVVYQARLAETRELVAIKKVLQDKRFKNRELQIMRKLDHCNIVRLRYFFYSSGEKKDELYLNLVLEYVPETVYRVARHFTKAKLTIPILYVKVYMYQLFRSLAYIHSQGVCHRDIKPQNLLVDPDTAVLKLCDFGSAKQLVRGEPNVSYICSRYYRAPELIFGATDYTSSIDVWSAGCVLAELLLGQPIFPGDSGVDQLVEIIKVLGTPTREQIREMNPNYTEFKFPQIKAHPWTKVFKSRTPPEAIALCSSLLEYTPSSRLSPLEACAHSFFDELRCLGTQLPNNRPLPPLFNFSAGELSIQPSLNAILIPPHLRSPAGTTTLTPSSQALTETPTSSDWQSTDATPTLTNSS
Chain of Rho-associated protein kinase 2 (O75116 whole entry, looked up): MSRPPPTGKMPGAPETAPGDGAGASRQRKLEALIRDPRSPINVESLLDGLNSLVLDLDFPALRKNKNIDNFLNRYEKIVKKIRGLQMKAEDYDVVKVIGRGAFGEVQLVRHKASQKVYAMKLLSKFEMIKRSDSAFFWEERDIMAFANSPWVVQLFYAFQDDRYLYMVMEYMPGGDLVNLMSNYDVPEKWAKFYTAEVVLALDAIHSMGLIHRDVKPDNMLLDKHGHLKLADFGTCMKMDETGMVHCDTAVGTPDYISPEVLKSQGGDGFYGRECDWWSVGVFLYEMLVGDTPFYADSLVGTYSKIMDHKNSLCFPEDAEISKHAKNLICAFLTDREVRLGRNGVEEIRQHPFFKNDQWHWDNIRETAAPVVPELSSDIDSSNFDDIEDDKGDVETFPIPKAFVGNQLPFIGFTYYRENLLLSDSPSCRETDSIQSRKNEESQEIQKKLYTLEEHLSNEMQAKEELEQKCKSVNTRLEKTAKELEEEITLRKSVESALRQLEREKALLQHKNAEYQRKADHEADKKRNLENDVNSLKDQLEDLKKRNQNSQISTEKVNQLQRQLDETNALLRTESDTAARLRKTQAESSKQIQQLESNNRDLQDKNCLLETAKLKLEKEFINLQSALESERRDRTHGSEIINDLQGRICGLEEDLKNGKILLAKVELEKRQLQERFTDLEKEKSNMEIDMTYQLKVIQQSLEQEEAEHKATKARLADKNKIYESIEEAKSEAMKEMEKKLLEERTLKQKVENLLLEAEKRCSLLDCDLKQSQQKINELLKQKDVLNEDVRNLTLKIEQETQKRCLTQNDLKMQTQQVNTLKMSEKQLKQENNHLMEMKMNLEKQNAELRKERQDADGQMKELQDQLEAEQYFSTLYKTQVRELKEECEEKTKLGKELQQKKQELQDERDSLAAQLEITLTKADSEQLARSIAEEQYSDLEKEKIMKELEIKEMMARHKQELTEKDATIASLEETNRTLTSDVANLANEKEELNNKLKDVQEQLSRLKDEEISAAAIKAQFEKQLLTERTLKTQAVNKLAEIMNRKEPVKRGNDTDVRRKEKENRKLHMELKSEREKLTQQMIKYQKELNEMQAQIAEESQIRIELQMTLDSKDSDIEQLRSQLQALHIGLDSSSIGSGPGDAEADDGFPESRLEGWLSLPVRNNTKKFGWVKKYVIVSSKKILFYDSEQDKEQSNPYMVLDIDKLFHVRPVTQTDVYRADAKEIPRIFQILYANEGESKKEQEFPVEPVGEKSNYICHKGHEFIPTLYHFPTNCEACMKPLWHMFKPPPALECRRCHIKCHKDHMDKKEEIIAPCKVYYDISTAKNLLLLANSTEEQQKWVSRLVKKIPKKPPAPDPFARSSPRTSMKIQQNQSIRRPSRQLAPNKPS
Chain of Serine/threonine-protein kinase PAK 6 (Homo sapiens) (Q9NQU5 whole entry, looked up): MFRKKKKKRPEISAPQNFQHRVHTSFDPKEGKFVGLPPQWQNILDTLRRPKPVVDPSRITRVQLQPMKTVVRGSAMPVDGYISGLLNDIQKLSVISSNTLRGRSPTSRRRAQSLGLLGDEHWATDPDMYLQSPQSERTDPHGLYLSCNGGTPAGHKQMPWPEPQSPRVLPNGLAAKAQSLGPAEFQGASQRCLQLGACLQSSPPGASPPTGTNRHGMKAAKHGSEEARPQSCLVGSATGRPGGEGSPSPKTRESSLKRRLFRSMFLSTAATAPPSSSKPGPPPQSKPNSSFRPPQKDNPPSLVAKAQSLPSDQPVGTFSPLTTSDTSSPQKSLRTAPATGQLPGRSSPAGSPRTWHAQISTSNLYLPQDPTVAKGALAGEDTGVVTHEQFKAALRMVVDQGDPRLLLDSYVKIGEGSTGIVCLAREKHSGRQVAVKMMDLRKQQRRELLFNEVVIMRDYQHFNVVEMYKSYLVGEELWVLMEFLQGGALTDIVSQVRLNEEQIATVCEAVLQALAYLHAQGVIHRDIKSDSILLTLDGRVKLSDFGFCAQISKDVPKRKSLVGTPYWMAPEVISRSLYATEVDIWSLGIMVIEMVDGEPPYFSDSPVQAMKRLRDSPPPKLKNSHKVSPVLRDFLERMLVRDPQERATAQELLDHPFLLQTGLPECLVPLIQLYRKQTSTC
Chain of Cyclin-dependent kinase 3 (Homo sapiens) (Q00526 whole entry, looked up): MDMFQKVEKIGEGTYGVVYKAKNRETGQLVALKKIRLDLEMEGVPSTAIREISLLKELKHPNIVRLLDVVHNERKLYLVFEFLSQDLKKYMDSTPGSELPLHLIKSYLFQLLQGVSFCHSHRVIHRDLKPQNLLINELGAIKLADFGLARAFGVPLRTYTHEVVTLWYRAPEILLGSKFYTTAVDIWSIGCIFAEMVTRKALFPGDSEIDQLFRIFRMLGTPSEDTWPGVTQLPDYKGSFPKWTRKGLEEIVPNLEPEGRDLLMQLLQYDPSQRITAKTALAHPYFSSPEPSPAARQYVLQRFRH
Chain of Mitogen-activated protein kinase 1 (P28482 whole entry): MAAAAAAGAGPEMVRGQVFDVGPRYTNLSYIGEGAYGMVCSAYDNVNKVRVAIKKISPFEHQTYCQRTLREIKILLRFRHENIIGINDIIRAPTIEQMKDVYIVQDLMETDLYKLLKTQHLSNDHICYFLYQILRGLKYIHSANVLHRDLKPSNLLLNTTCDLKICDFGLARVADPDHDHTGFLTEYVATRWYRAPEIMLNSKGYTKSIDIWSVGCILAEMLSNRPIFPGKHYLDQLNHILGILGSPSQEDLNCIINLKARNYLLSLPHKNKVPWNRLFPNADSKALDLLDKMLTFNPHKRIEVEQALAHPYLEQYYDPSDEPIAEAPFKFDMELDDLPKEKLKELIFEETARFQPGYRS
Chain of Serine/threonine-protein kinase PAK 1 (Homo sapiens) (Q13153 whole entry): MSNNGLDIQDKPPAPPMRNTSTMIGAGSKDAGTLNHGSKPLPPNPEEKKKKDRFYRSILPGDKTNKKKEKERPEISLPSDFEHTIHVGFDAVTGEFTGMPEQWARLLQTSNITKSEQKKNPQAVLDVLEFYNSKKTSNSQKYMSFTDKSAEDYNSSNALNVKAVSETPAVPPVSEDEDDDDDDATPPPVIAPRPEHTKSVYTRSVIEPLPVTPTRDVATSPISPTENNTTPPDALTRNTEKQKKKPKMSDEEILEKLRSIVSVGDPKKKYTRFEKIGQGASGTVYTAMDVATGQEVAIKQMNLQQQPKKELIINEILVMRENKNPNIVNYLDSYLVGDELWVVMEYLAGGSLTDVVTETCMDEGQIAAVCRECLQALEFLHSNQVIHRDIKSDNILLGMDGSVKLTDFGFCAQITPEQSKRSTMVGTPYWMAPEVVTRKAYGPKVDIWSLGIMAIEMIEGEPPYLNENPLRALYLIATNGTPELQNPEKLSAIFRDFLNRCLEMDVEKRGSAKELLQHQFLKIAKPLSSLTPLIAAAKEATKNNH
Chain of Serine/threonine-protein kinase Nek6 (Homo sapiens) (Q9HC98 whole entry): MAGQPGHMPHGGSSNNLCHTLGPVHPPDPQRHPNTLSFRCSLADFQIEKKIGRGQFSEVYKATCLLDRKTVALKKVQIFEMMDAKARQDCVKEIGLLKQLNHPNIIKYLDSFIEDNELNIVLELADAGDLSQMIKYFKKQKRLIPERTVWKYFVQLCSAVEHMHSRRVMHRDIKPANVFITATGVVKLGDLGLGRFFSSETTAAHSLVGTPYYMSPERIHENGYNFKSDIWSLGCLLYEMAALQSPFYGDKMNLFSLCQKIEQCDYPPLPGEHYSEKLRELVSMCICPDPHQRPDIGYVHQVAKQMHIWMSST

With `CN(C)C/C=C/C(=O)Nc1ccc(C(=O)N2CCCC(Nc3ncc(Cl)c(-c4c[nH]c5ccccc45)n3)C2)cc1` (configuration not stated), in assay [1], the % of control amounted to 95%.
For the compound `CCN(CC)CCCCNc1ncc2cc(-c3cc(OC)cc(OC)c3)c(NC(=O)NC(C)(C)C)nc2n1`, the % of control in [2] was 100%.
In turn, `Nc1cnc(N2CCc3cc(S(=O)(=O)Nc4c(F)cc(Cl)cc4F)cc(N4CCCC4=O)c32)nc1` [TP-020n] gave a % of control in [3] of 90%.
Regarding `CCC(=O)N1CCN(c2ccc(-n3c(=O)ccc4cnc5ccc(-c6cnc7ccccc7c6)cc5c43)cc2C(F)(F)F)CC1`, the % of control in assay [4] is 45%.
In turn, `COCCN1CCC(c2cc(CN(C)C(=O)c3cccc(Oc4ccccc4)c3)ccn2)CC1` had a pIC50 in assay [5] of less than 8.52.
As to `COc1cc(Nc2nc(C)cc(-c3cnn4nc(OC)ccc34)n2)cc(C(F)(F)F)c1`, the % of control in assay [6] was found to be 74%.
`C=CC(=O)Nc1cc(-n2c(=O)ccc3cnc4ccc(-c5ccc(NS(C)(=O)=O)cc5)cc4c32)ccc1C`: the % of control in assay [7] (at 1 µM) and in assay [7] (at 10 µM) was 100% each time.
In turn, `O=C(NOC[C@H](O)CO)c1ccc(F)c(F)c1Nc1ccc(I)cc1F` had a % of control in assay [8] of 89%.
In the case of `Cn1cc(-n2cnc3c(NCc4nc5cc(Cl)c(Cl)cc5[nH]4)nc(N4CCOCC4)nc32)cn1`, the values for the % of inhibition in [9] and in assay [10] were 5.79% and 63.9%, respectively.
`Cc1cc(C)cc([C@H]2c3cc(C)ccc3NC(=O)CN2C(=O)c2ccc(Br)s2)c1`: the results for the % of activity in assay [11] (at 1 µM) and in assay [11] (at 10 µM) were 98.7% and 96.3%, respectively.
Consider `CC[C@@H]1[C@H](F)C(=O)N[C@@H]1COc1nccc2cc(C(N)=O)c(OC)cc12` [ZIMLOVISERTIB], for which the % of inhibition in [12] was -1.02%.
For the compound `N#Cc1cccc(-c2c[nH]c3ncnc(N4CCOCC4)c23)c1`, the % of control in assay [13] came out at 75%; in [14], 93%. Further, the % of inhibition in [15] came to 54%.
